Measurements: US8829003B2, “Compounds for treating proliferative disorders” (Changzhou Le Sun Pharmaceuticals Limited, priority 2010, dated 2014)

What was measured:
cancer cells = experiment: MTT proliferation assay; type: cell-based; conditions: GI50 values only in FIG. 4
Description: C.1. MTT Proliferation Assay.
The compounds from the examples above were subjected to a standard cellular proliferation assay using the method described previously in S. Wang et al. J Med Chem. 2004, 47, 1662-1675. The data analysis used program Deltasoft 3™ and Microsoft Excel to determine GI50 values (concentration of test compound which inhibits cell growth by 50%).

[1] = system: HCT-116 human colon cancer cells; experiment: Cell-cycle effects, DNA content by flow cytometry; type: cell-based; conditions: HCT-116 cells, 0.62 μM, 48 hrs
Experimental: HCT-116 human colon cancer cells were treated with DMSO and A.12 at GI50 and […] respectively for a period of 48 hrs. The cells were analysed for their DNA content by flow cytometry.
This further indicates the efficacy of the compounds of the invention.

[2] = Mouse pharmacokinetics, IV and oral dosing; conditions: mice
Experimental: For PK measurements male adult CD1 mice weighing 25-30 g (Charles River) are split into weight matched groups of 3 per group. IV dosed mice were restrained in individual restraining tubes, the tail was warmed in warm water to vasodilate the tail vein, and the IV bolus was then administered via the tail vein. Orally dosed mice were held at the scruff of the neck and dosed via a metal gavage directly into the stomach. Immediately after dosing mice are returned to their cage, plastic box cage with sawdust bedding, and food and water available. Blood samples were collected from the mouse under anaesthesia by cardiac puncture using a 1 mL syringe and 25 gauge needle at time zero and at intervals up to 8 h. Harvested blood was centrifuged at 7000×G for 2 minutes, and the plasma aspirated and frozen at 20° C. until analysis. Quantitative compound level analysis was carried out using LC-MS/MS methods. Pharmacokinetic data derived using PK Solutions 2.0, non-compartmental analysis. Oral bioavailability (% F) was calculated by taking the ratio of dose-normalised AUC values from oral versus parenteral dosing.

Row | Compound | inhibition of cell growth (cancer cells) | apoptosis (sub-G1 cells) [1] | effect on cell cycle progression [1] | pharmacokinetic properties compared with ON01910.Na ([2]; IV and PO) | oral bioavailability (F) ([2]; oral, 10 mg/kg)
1 | COc1cc(OC)c(/C=C/S(=O)(=O)Cc2cnc(OC)c(NS(C)(=O)=O)c2)c(OC)c1 [A.12, (E)-N-(2-methoxy-5-((2,4,6-trimethoxystyrylsulfonyl)methyl)pyridin-3-yl)methanesulfonamide] | effectively inhibit cell growth | increased sub-G1 cells | block of their cell cycle progression in G2/M phase | significantly improved pharmacokinetic properties | 56%
2 | CCOC(=O)CNc1cc(CS(=O)(=O)/C=C/c2c(OC)cc(OC)cc2OC)cnc1OC [A.13, (E)-ethyl 2-(2-methoxy-5-((2,4,6-trimethoxystyrylsulfonyl)methyl)pyridin-3-ylamino)acetate] | effectively inhibit cell growth |  |  |  | 
3 | COc1cc(OC)c(/C=C/S(=O)(=O)Cc2ccc(OC)c(N3CCCCC3)n2)c(OC)c1 [A.29, (E)-3-Methoxy-2-(piperidin-9-yl)-6-((2,4,6-trimethoxystyrylsulfonyl)methyl)pyridine] | effectively inhibit cell growth |  |  |  | 
4 | COc1cccc(OC)c1/C=C/S(=O)(=O)Cc1cnc(OC)c([N+](=O)[O-])c1 [A.17, (E)-5-((2,6-Dimethoxystyrylsulfonyl)methyl)-2-methoxy-3-nitropyridine] | effectively inhibit cell growth |  |  |  | 
5 | COc1cc(OC)c(/C=C/S(=O)(=O)Cc2cnc(OC)c(N)c2)c(OC)c1 [A.10, (E)-2-methoxy-5-((2,4,6-trimethoxystyrylsulfonyl)methyl)pyridin-3-amine] | effectively inhibit cell growth |  |  |  | 
